SMILES strings stand for the structures. Structures can show the parent of a compound that is named as a salt.

The values that follow come from publication PMC10502144, “Anti-methicillin-resistant Staphylococcus aureus activity and safety evaluation of 14-O-[(5-ethoxycarbonyl-4,6-dimethylpyrimidine-2-yl) thioacetyl] mutilin (EDT)” (Scientific Reports, 2023).

In one data set the test system is CYP3A4. Particulars: cited from earlier work.
In data set [1] the test system is Salmonella Typhimurium TA100. The experiment in a line: Ames test, TA100. It is filed as cell-based. The protocol:
(§1) Before the test, Salmonella Typhimurium (S. Typhimurium) TA97a, TA98, TA100, TA102, TA1535 and Escherichia coli WP2uvrA pKM101 (pKM101) were first checked for their genetic integrity, including biotin dependence, rfa marker (crystal violet), biotin, histidine dependence and presence of the plasmid pKM101 (ampicillin resistance) or pAQ1 (tetracycline resistance). […] The maximum concentration of EDT was also screened using a preliminary experiment.
(§2) DMSO (0.1 mL) was directly incorporated into 1.9 mL melted top agar as the vehicle control. […] Each strain (0.1 mL, 6–7 log10 CFU/mL) was added into 2 mL of top agar in which comprised 0.5 mL S9 (10%), serial concentrations of EDT (2000, 400, 80, 16 and 3.2 μg/plate), DMSO or control chemicals for testing with the S9. For testing without S9, 0.5 mL phosphate buffer saline (PBS, pH 7.4) replaced the S9 mix. Then, the obtained top agar was melted, poured onto the surface of […] and swirled to distribute the top agar to all surfaces of medium, followed by incubation at 37 °C for 48 h. The resultant colonies were counted manually as the number of revertant colonies per plate. The experiments were performed in triplicate and the results were expressed as the average ± SD.

Data set [2] can be described thus: Cytotoxicity assay (CCK-8), HEK293T. It is filed as cell-based. Particulars: human, HEK293T cells. The protocol:
Cytotoxicity of EDT and tiamulin was studied against human hepatocellular carcinoma cells (HepG2) and human embryonic kidney 293T (HEK293T) cells following a protocol as published in our earlier reports[41],[42]. Cells were counted and inoculated into 96-well plates with approximately10^5 cells density for incubating 24 h at 37 °C. […] The same procedure was repeated three times. The percentages of cell viability were calculated by the formula: Cell viability (%) = [Asample ‒ Anegative]/[Apositve ‒ Anegative] × 100%.

For data set [3], the system named is Salmonella Typhimurium TA98. The experiment in a line: Ames test, TA98. The protocol: as §1, §2
In data set [4] the test system is Escherichia coli WP2uvrA pKM101. Put plainly: Ames test, pKM101. The protocol:
as §1, §2

In the case of `C=C[C@]1(C)C[C@@H](OC(=O)CSCCN(CC)CC)[C@]2(C)[C@H](C)CC[C@]3(CCC(=O)[C@H]32)[C@@H](C)[C@@H]1O` [tiamulin, Tiamulin fumarate, reference compound], the IC50 with CYP3A4 was 1.6 µM.
Consider `C=CC1(C)CC(OC(=O)CSc2nc(C)c(C(=O)OCC)c(C)n2)C2(C)C(C)CCC3(CCC(=O)C32)C(C)C1O` (stereo not drawn) [EDT, 14-O-[(5-ethoxycarbonyl-4,6-dimethylpyrimidine-2-yl)thioacetyl] mutilin], for which the “number of revertant colonies per plate” value in data set [1] (TA100, 3.2 μg/plate, +S9) stood at 119.67 ± 7.33; in data set [1] (TA100, 3.2 μg/plate, −S9) it was 109.00 ± 8.00; in data set [1] (TA100, 16 μg/plate, +S9), 103.67 ± 9.33; in data set [1] (TA100, 16 μg/plate, −S9), 101.00 ± 9.00; in data set [1] (TA100, 80 μg/plate, +S9), 118.67 ± 14.33; in data set [1] (TA100, 80 μg/plate, −S9), 105.33 ± 13.67. Further, the “number of revertant colonies per plate” value in data set [1] (TA100, 400 μg/plate, +S9) amounted to 134.33 ± 12.67; in data set [1] (TA100, 400 μg/plate, −S9) it was 129.67 ± 15.33; in data set [1] (TA100, 2000 μg/plate, +S9), 137.00 ± 14.00; in data set [1] (TA100, 2000 μg/plate, −S9), 122.67 ± 11.33; in data set [3] (TA98, 3.2 μg/plate, +S9) it was 22.00 ± 2.00; in data set [3] (TA98, 3.2 μg/plate, −S9), 21.67 ± 1.67. Further, the “number of revertant colonies per plate” value is 24.00 ± 4.00 in data set [3] (TA98, 16 μg/plate, +S9); 23.33 ± 2.67 in data set [3] (TA98, 16 μg/plate, −S9); 19.00 ± 3.00 in data set [3] (TA98, 80 μg/plate, +S9); 23.33 ± 2.67 in data set [3] (TA98, 80 μg/plate, −S9); 25.00 ± 4.00 in data set [3] (TA98, 400 μg/plate, +S9); 26.67 ± 3.33 in data set [3] (TA98, 400 μg/plate, −S9). In addition, the “number of revertant colonies per plate” value in data set [3] (TA98, 2000 μg/plate, +S9) amounted to 29.67 ± 2.33; in data set [3] (TA98, 2000 μg/plate, −S9) it was 32.33 ± 3.67; in data set [4] (pKM101, 3.2 μg/plate, +S9), 50.33 ± 2.67; in data set [4] (pKM101, 3.2 μg/plate, −S9), 42.00 ± 3.00; in data set [4] (pKM101, 16 μg/plate, +S9) it was 54.00 ± 4.00; in data set [4] (pKM101, 16 μg/plate, −S9), 46.00 ± 5.00. Besides, the “number of revertant colonies per plate” value amounted to 44.00 ± 4.00 in data set [4] (pKM101, 80 μg/plate, +S9); 41.33 ± 3.67 in data set [4] (pKM101, 80 μg/plate, −S9); 53.00 ± 5.00 in data set [4] (pKM101, 400 μg/plate, +S9); 51.33 ± 3.67 in data set [4] (pKM101, 400 μg/plate, −S9); 50.33 ± 3.67 in data set [4] (pKM101, 2000 μg/plate, +S9); 47.00 ± 4.00 in data set [4] (pKM101, 2000 μg/plate, −S9). Besides, the values for the CC50 at 6 h in data set [2] (200 μM converted to μg/mL) and in data set [2] (deduced from Fig. 5) were greater than 115 µg/mL and greater than 200 µM, respectively.
